Results published in ChEMBL document CHEMBL1926510, “Naphthoquinone-like polyketide isolated from Streptomyces sp. RI-77 and its predicted biosynthetic pathway” (J Nat Prod, 2011).
pIC50: −log10 of the molar value. The source made the active and inactive calls. The rule behind the calls is not given here.

Assays:
[1] = Antioxidant activity assessed as DPPH radicle scavenging activity after 30 mins by spectrometric analysis; format: functional
Micrococcus luteus = assay: Antibacterial activity Micrococcus luteus; format: functional, organism-based
Escherichia coli = assay: Antibacterial activity Escherichia coli; format: functional, organism-based

Structure (SMILES)	pIC50 [1]	Activity (Micrococcus luteus)	Activity (Escherichia coli)
Cc1c(C)c2c(c(C)c1O)CC[C@@](C)(CCC[C@H](C)CCC[C@H](C)CCCC(C)C)O2 [ALPHA-TOCOPHEROL]	4.55	–	–
COc1cc(O)c2c(c1O)C(=O)[C@@]13C[C@H]4[C@@H](C[C@H]1C(C)=O)OC(=O)[C@@]4(OC)C(O)=C3C2=O	3.78	inactive	inactive
